Tests used:
HIS-TGFβR1 T204D = HIS-TGFβR1 T204D (Homo sapiens (Human), UniProt P36897, T204D); assay: HTRF probe displacement assay, HIS-TGFβR1 T204D; type: binding; conditions: 1 nM HIS-TGFβR1 T204D, 1 hour at room temperature, read-out: TGFBR1T204D IC50
Description: (§1) Compounds were dissolved at 10 mM in dimethylsulfoxide (DMSO) and evaluated at eleven concentrations. IC50 values were derived by non-linear regression analysis.

HIS-TGFβR2 WT = HIS-TGFβR2 WT (Homo sapiens (Human), UniProt P37173); assay: HTRF probe displacement assay, HIS-TGFβR2 WT; type: binding; conditions: 1 nM HIS-TGFβR2 WT, 1 hour at room temperature, read-out: TGFBR2WT IC50
Sequence of HIS-TGFβR2 WT (P37173 23-567): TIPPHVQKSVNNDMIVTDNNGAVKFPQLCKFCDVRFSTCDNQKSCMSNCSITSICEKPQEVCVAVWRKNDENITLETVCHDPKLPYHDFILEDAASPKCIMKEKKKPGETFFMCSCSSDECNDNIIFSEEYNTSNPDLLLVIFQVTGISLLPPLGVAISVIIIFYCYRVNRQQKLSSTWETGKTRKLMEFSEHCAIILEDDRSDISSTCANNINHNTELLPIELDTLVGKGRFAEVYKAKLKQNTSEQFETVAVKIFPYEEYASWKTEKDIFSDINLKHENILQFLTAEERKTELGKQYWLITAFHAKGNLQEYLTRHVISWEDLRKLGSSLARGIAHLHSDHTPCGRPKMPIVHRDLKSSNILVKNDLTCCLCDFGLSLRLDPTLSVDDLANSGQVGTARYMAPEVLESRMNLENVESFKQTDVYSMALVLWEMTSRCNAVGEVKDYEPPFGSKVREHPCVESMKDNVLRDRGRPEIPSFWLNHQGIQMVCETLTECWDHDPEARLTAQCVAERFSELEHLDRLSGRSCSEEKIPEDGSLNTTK
Description: as §1

Sequence of HIS-TGFβR1 T204D (P36897 34-503 T204D): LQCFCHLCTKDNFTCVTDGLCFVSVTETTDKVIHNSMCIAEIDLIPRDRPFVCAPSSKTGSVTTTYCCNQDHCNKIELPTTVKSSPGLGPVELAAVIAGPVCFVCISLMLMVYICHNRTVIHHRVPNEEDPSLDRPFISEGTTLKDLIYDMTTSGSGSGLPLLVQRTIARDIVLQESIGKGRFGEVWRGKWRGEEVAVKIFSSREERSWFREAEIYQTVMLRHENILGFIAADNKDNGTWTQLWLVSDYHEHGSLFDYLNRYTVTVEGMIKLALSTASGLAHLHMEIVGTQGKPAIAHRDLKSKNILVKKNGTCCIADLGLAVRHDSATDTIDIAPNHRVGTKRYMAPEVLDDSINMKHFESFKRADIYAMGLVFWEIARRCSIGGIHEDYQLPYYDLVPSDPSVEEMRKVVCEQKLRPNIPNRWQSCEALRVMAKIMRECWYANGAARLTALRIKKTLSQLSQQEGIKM

IC50 (HIS-TGFβR1 T204D)	IC50 (HIS-TGFβR2 WT)	SMILES
9 nM	> 15000 nM	Cc1cccc(-c2ncccc2-c2ccc3nccnc3c2)n1 [Compound 113, 6-(6′-methyl-[2,2′-bipyridin]-3-yl)quinoxaline]
16 nM	> 15000 nM	FC(F)(F)c1cccc(-c2ncccc2-c2ccc3nccnc3c2)n1 [Compound 114, 6-(6′-(trifluoromethyl)-[2,2′-bipyridin]-3-yl)quinoxaline]
3 nM	> 15000 nM	FC(F)c1cccc(-c2ncccc2-c2ccc3[nH]ncc3c2)n1 [Compound 115, 5-(6′-(difluoromethyl)-[2,2′-bipyridin]-3-yl)-1H-indazole]
14 nM	> 15000 nM	Fc1ccc(-c2ncccc2-c2ccc3[nH]ncc3c2)nc1 [Compound 116, 5-(5′-fluoro-[2,2′-bipyridin]-3-yl)-1H-indazole]
2 nM	> 15000 nM	Cc1nc(-c2ncccc2-c2ccc3[nH]ncc3c2)ccc1F [Compound 117, 5-(5′-fluoro-6′-methyl-[2,2′-bipyridin]-3-yl)-1H-indazole]
427 nM	> 15000 nM	FC(F)c1cccc(-c2ncccc2-c2ccc3[nH]nc(C(F)F)c3c2)n1 [Compound 118, 3-(difluoromethyl)-5-(6′-(difluoromethyl)-[2,2′-bipyridin]-3-yl)-1H-indazole]
59 nM	> 15000 nM	Cc1cccc(-c2ncccc2-c2ccn3ncc(C#N)c3n2)n1 [Compound 119, 5-(6′-methyl-[2,2′-bipyridin]-3-yl)pyrazolo[1,5-a]pyrimidine-3-carbonitrile]
854 nM	> 15000 nM	N#Cc1cnn2ccc(-c3cccnc3-c3cccc(C(F)(F)F)n3)nc12 [Compound 121, 5-(6′-(trifluoromethyl)-[2,2′-bipyridin]-3-yl)pyrazolo[1,5-a]pyrimidine-3-carbonitrile]
242 nM	> 15000 nM	Cc1nc(-c2ncccc2-c2ccn3ncc(C#N)c3n2)ccc1F [Compound 122, 5-(5′-fluoro-6′-methyl-[2,2′-bipyridin]-3-yl)pyrazolo[1,5-a]pyrimidine-3-carbonitrile]
46 nM	> 15000 nM	CCOC(=O)c1cnn2ccc(-c3cccnc3-c3cccc(C(F)(F)F)n3)nc12 [Compound 123, ethyl 5-(6′-(trifluoromethyl)-[2,2′-bipyridin]-3-yl)pyrazolo[1,5-a]pyrimidine-3-carboxylate]
137 nM	> 15000 nM	O=C(O)c1cnn2ccc(-c3cccnc3-c3cccc(C(F)(F)F)n3)nc12 [Compound 124, 5-(6′-(trifluoromethyl)-[2,2′-bipyridin]-3-yl)pyrazolo[1,5-a]pyrimidine-3-carboxylic acid]
339 nM	> 15000 nM	CNC(=O)c1cnn2ccc(-c3cccnc3-c3cccc(C(F)(F)F)n3)nc12 [Compound 125, N-methyl-5-(6′-(trifluoromethyl)-[2,2′-bipyridin]-3-yl)pyrazolo[1,5-a]pyrimidine-3-carboxamide]
94 nM	> 15000 nM	O=C(NC1CC1)c1cnn2ccc(-c3cccnc3-c3cccc(C(F)(F)F)n3)nc12 [Compound 126, N-cyclopropyl-5-(6′-(trifluoromethyl)-[2,2′-bipyridin]-3-yl)pyrazolo[1,5-a]pyrimidine-3-carboxamide]
128 nM	> 15000 nM	CNC(=O)c1cnn2ccc(-c3cccnc3-c3cccc(C)n3)nc12 [Compound 127, N-methyl-5-(6′-methyl-[2,2′-bipyridin]-3-yl)pyrazolo[1,5-a]pyrimidine-3-carboxamide]
33 nM	> 15000 nM	Cc1cccc(-c2ncccc2-c2ccn3ncc(C(=O)NC4CC4)c3n2)n1 [Compound 128, N-cyclopropyl-5-(6′-methyl-[2,2′-bipyridin]-3-yl)pyrazolo[1,5-a]pyrimidine-3-carboxamide]
29 nM	> 15000 nM	Cc1cccc(-c2ncccc2-c2ccn3ncc(C(=O)NC4COC4)c3n2)n1 [Compound 129, 5-(6′-methyl-[2,2′-bipyridin]-3-yl)-N-(oxetan-3-yl)pyrazolo[1,5-a]pyrimidine-3-carboxamide]

From US9981944B2, “GDF-8 inhibitors” (Rigel Pharmaceuticals, Inc., priority 2015, dated 2018)
